Test results taken from patent US12599608B2, “Methods for treating cardiac valve disease” (The Regents of the University of California, priority 2018, dated 2026).
“Also recorded” adds a separate entry of the source.

Assays:
[1] = test system: N1^+/− iPSC-derived ECs; test: Network-based small molecule screen by targeted RNA-seq of 119 genes (KNN and hierarchical clustering); format: cell-based, human; conditions: initial screen, complete agglomeration method
Source text: TALEN-engineered isogenic human iPSCs that were either WT (wild-type) or N1^+/− were derived and characterized as detailed in Theodoris et al., Cell. 2015; 160:1072-1086. Isogenic iPSCs (induced pluripotent stem cells) were differentiated into ECs as previously described (Theodoris et al., 2015; White et al., Stem Cells. 2012; 31:92-103). On day 13 of the differentiation process, ECs were greater than 90% double-positive for CD31 (BD #558068) and CD144 (#FAB9381P) by FACS (fluorescence-activated cell sorting) analysis (FIGS. 9G-H). Small molecule experiments (described below) were conducted at day 15 of differentiation.
Starting on day 15 of differentiation, WT ECs were exposed to 10 μM DMSO (dimethyl sulfoxide) (n=80) while isogenic N1^+/− ECs were exposed to either 10 μM DMSO (n=80) or one of the small molecules from the LOPAC (1280 molecules) (Sigma LO1280) or Sheng Ding (315 molecules) chemical libraries. DMSO or small molecules were renewed with EC media (ScienCell #1001) changes on alternating days until the cells were ultimately collected for analysis on day 21. ECs were imaged using the IN Cell Analyzer on day 21 to evaluate morphology and cell death; wells with extensive cell death were eliminated from final analyses. For validation experiments, promising small molecules identified from the initial screen were applied to N1^+/− ECs in duplicate or triplicate along with controls of DMSO-exposed WT and N1^+/− ECs (n=4 each) using the same process as the initial screen described above.
ECs were lysed and RNA was isolated using the Qiagen RNeasy 96-well purification kit. RNA was diluted so that it was between the 10 pg-1 ng range accepted by the Cellular Research Precise targeted RNA-seq (RNA sequencing) system. Targeted RNA-seq libraries were prepared as per the Cellular Research Precise protocol (Rev 03092015), which includes both molecule and sample barcoding. The selected 119 target genes (see Table 1) included 3 low-expressing housekeeping genes for normalization (CHMP2A, C1orf43, REEP5) and either predicted central regulatory nodes or peripheral genes positioned within varied regions of the N1 network to permit identification of small molecules that affected central nodes as well as those that may have a synergistic effect in combination due to regulating different aspects of the network. Briefly, RNA was added to the Precise Encoding Plate containing indexed dT primer, dNTPs, and Spike-in mRNA controls and incubated at 65° C. for 3 minutes followed by cooling on ice. A master-mix of RT enzyme, RNase inhibitor, and buffer was then added to the samples, and they were incubated at 42° C. for 30 minutes followed by 80° C. for 5 minutes. Each plate of samples was combined into a single 2 ml tube and purified with AMPureXP beads. N1 PCR master-mix was added and samples were incubated for 94° C. for 2 minutes, followed by 15 cycles of 94° C. for 30 seconds, 55° C. for 3 minutes, and 68° C. for 1 minute, followed by 68° C. for 7 minutes. Samples were purified with AMPureXP beads and N2 PCR master-mix was added. Samples were incubated with the same thermal cycler program as above for 12 cycles. These final libraries were then purified with AMPureXP beads and analyzed for quality and concentration by Agilent Bioanalyzer and Illumina Library Quantification Kit (KAPA Biosystems), respectively. Libraries were normalized to equivalent concentration and pooled for paired-end 100 bp sequencing on an Illumina HiSeq 2500 instrument.
Sequencing data was analyzed using Cellular Research Precise Analysis Pipeline on the SevenBridges platform, which included analyzing sequencing quality with FASTQC, trimming adapters and filtering reads, demultiplexing based on sample barcodes, aligning reads with Bowtie 2, and determining the number of unique molecular indices per gene. Network inference was based on mutual information of gene expression from all DMSO- and small molecule-exposed samples as described in Margolin et al., BMC Bioinformatics. […]

[2] = test system: N1^+/− ECs; test: Whole transcriptome RNA-seq of N1^+/− ECs treated with network-correcting molecules; format: cell-based, human; conditions: for repressive effect on cadherin-11 mRNA expression: FIG. 9A; for restoration of the N1-dependent network as a whole: FIGS. 2E, 3A
Protocol: ECs were lysed and RNA was isolated using the Qiagen RNeasy Micro purification kit. RNA-seq libraries were constructed using the Clontech SMRTer Stranded RNA-seq Library Prep Kit for Illumina per kit protocol. Libraries were analyzed by Agilent Bioanalyzer, normalized to equivalent concentration, pooled, gel purified, and sequenced 75 bp paired-end on an Illumina NextSeq instrument with 10% PhiX.
Sequencing quality was assessed with FASTQC (located on the web by placing “www.” in front of “bioinformatics.babraham.ac.uk/projects/fastqc/”). Reads were aligned to the hg19 (Homo sapiens assembly February 2009) transcriptome and genome using the Spliced Transcripts Alignment to a Reference (STAR) Aligner (Dobin et al., Bioinformatics. 2012; 29:15-21) and differential expression was analyzed using Cuffdiff (Trapnell et al., Nat Biotechnol. 2012; 31:46-53). HOPACH was used for clustering with the correlation metric (van der Laan and Pollard; located on the web by placing “www.” in front of “bioconductor.org/packages/devel/bioc/manuals/hopach/man/hopach.pdf”. GO analyses were completed using GO-Elite and ToppGene (Chen et al., Nucleic Acids Research. 2009; 37:W305-W311; Zambon et al., Bioinformatics. 2012; 28:2209-2210). Network diagrams were generated using NetworkX (Hagberg et al., SciPy. 2008) based on network connections inferred from mRNA-seq gene expression of isogenic N1^+/− compared to WT ECs with colors based on whole transcriptome RNA-seq gene expression of DMSO- vs small molecule-treated WT and N1^+/− ECs.

[3] = test system: N1^+/−/mTR^G2 mice; test: In vivo small molecule treatment, AV and PV peak velocity by echocardiography; conditions: XCT790 5 mg/kg/day i.p., TG003 0.3 or 2 mg/kg/day i.p. pooled; for AV stenosis by echocardiography: AV peak velocity versus DMSO; for PV stenosis by echocardiography: PV peak velocity versus DMSO
Protocol: Protocols were reviewed/approved by UCSF Institutional Animal Care and Use Committee, San Francisco, CA. N1^+/− and mTR^het C57Bl6 mice (purchased from Jackson Labs: #002797 and #004132, respectively) were used to generate double mutant animals. Breedings were performed as previously described (Theodoris et al., The Journal of Clinical Investigation. 2017; 127:1683) to generate N1^+/−/[…] mice. Mice were treated with XCT790 (5 mg/kg/day), TG003 (0.3 mg/kg/day or 2 mg/kg/day, results pooled for analysis), Fmoc-leu (0.6 mg/kg/day), GSK837149A (4.5 mg/kg/day), biperiden (10 mg/kg/day), CB1954 (15 mg/kg/day), putrescine (0.26 mg/kg/day), naloxone (25 mg/kg/day), all by intraperitoneal injection, and RO4929097 (60 mg/kg/day) by oral gavage, or equivalent volume of solvent (DMSO or saline) for four weeks starting at the fourth postnatal week.
Echocardiography was performed under isofluorane anesthesia with standard measurement techniques using the Vevo 770 Imaging System (VisualSonics) equipped with an RMV-707B transducer with central frequency of 30 MHz. Peak blood flow velocity through AVs and PVs was obtained by pulsed wave Doppler in the modified parasternal long and short axis views. The average of three cardiac cycles was used for each measurement.

Row | SMILES | hierarchical clustering of transcriptional profile of treated N1-haploinsufficient ECs with WT ECs [1] | repression of genes aberrantly activated in N1-haploinsufficient ECs ([2]; FIG. 2A) | repressive effect on cadherin-11 mRNA expression [2] | restoration of the N1-dependent network as a whole [2] | AV stenosis by echocardiography [3] | PV stenosis by echocardiography [3] | restoration of transcription of genes repressed in N1-haploinsufficient ECs ([2]; FIG. 2A) | correlation of gene expression of treated N1^+/− ECs with WT ECs ([2]; FIG. 2B) | restorative effect on regulatory nodes SOX7 and TCF4 ([2]; FIG. 2D)
1 | CCN1/C(=C/C(C)=O)Sc2ccc(OC)cc21 [TG003, (Z)-1-(3-ethyl-5-methoxy-2,3-dihydrobenzothiazol-2-ylidene)propan-2-one] | cluster with WT ECs | broadly effective at repressing these genes, albeit to a lesser degree | strongest repressive effect | strong restorative effect | did not significantly impact | did not significantly impact | – | – | –
2 | COc1cc(/C=C(\C#N)C(=O)Nc2nnc(C(F)(F)F)s2)ccc1OCc1ccc(C(F)(F)F)cc1C(F)(F)F [XCT790, 2E-3-(4-{[2,4-bis(trifluoromethyl)benzyl]oxy}-3-methoxyphenyl)-2-cyano-N-[5-(trifluoromethyl)-1,3,4-thiadiazol-2-yl]acrylamide] | cluster with WT ECs | most effective at repressing genes aberrantly activated in N1-haploinsufficient ECs | strongest repressive effect | most effective at restoring both aberrantly activated and repressed genes; also recorded: corrected the greatest number of genes to the greatest degree; also recorded: strongest restorative effect on central regions of the network | showed a trend of reducing AV stenosis | sufficient to prevent PV stenosis | effectively restored the transcription of mesoderm and cell cycle checkpoint genes | correlated most strongly; also recorded: correlate most strongly with WT ECs | strongest restorative effect
